pIC50: −log10 of the molar value. Calls of active or inactive are those of the source. The rule behind the calls is not given here.
Legend:
[1] = molecular target: Receptor tyrosine-protein kinase erbB-2 (Homo sapiens, UniProt P04626); test: Inhibition of Her-2 by time-resolved fluorescence assay
[2] = molecular target: Epidermal growth factor receptor (Homo sapiens, UniProt P00533); test: Inhibition of EGFR by time-resolved fluorescence assay
BT-474 = test: Antiproliferative activity against human BT474 cells after 3 days by methylene blue staining; type: functional, cell-based; settings: BT-474, 72 h
NCI-N87 [3] = test: Antiproliferative activity against human NCI-N87 cells after 3 days by methylene blue staining; type: functional, cell-based; settings: NCI-N87, 72 h
NCI-N87 [4] = test: Antitumor activity against human NCI-N87 cells xenografted in athymic mouse assessed as tumor growth inhibition at 20 mg/kg, po QD for 14 days measured after 19 days; type: functional, organism-based; set-up: dose 20 mg/kg
[5] = molecular target: Tyrosine-protein kinase Lck (Homo sapiens, UniProt P06239); test: Inhibition of Lck
[6] = AUC in po dosed rat; type: ADME, organism-based; settings: plasma
NCI-N87 [7] = test: Antitumor activity against human NCI-N87 cells xenografted in athymic mouse assessed as tumor growth inhibition at 80 mg/kg, po QD for 14 days measured after 19 days; type: functional, organism-based; set-up: dose 80 mg/kg
NCI-N87 [8] = test: Antitumor activity against human NCI-N87 cells xenografted in athymic mouse assessed as tumor volume at 80 mg/kg, po QD for 14 days measured after 19 days relative to control; type: functional
Aurora kinase A = molecular target: T1, Aurora kinase A (Homo sapiens, UniProt O14965); test: Inhibition of Aurora A
T1 sequence (O14965 whole entry): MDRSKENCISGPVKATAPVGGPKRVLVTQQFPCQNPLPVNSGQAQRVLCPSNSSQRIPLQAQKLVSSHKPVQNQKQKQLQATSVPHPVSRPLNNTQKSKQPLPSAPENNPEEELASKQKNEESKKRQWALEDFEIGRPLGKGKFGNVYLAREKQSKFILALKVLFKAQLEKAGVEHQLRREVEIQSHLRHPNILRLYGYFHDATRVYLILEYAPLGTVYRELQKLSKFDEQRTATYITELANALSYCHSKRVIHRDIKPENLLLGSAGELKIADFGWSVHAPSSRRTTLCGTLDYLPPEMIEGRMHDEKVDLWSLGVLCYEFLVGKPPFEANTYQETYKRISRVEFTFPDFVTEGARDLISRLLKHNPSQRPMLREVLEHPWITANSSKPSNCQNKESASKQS

[9] = molecular target: Platelet-derived growth factor receptor beta (Homo sapiens, UniProt P09619); test: Inhibition of PDGFRbeta
NCI-N87 [10] = test: Antitumor activity against human NCI-N87 cells xenografted in athymic mouse assessed as tumor volume at 20 mg/kg, po QD for 14 days measured after 19 days relative to control; type: functional
[11] = molecular target: Vascular endothelial growth factor receptor 2 (Homo sapiens, UniProt P35968); test: Inhibition of VEGFR2
Insulin receptor = Insulin receptor (Homo sapiens, UniProt P06213); test: Inhibition of INSR
[12] = Total clearance in iv dosed rat; type: ADME, organism-based; settings: in vivo
[13] = Metabolic stability of the compound in human liver microsomes assessed as compound remaining after 30 mins; type: ADME, Microsome; settings: read-out: Stability
[14] = Aqueous solubility of the compound at pH 7.4; type: physicochemical
[15] = Metabolic stability of the compound in rat liver microsomes assessed as compound remaining after 30 mins; type: ADME, Microsome; settings: read-out: Stability
[16] = Oral bioavailability in rat; type: ADME, organism-based; settings: in vivo

Sequence of Receptor tyrosine-protein kinase erbB-2 (P04626 whole entry): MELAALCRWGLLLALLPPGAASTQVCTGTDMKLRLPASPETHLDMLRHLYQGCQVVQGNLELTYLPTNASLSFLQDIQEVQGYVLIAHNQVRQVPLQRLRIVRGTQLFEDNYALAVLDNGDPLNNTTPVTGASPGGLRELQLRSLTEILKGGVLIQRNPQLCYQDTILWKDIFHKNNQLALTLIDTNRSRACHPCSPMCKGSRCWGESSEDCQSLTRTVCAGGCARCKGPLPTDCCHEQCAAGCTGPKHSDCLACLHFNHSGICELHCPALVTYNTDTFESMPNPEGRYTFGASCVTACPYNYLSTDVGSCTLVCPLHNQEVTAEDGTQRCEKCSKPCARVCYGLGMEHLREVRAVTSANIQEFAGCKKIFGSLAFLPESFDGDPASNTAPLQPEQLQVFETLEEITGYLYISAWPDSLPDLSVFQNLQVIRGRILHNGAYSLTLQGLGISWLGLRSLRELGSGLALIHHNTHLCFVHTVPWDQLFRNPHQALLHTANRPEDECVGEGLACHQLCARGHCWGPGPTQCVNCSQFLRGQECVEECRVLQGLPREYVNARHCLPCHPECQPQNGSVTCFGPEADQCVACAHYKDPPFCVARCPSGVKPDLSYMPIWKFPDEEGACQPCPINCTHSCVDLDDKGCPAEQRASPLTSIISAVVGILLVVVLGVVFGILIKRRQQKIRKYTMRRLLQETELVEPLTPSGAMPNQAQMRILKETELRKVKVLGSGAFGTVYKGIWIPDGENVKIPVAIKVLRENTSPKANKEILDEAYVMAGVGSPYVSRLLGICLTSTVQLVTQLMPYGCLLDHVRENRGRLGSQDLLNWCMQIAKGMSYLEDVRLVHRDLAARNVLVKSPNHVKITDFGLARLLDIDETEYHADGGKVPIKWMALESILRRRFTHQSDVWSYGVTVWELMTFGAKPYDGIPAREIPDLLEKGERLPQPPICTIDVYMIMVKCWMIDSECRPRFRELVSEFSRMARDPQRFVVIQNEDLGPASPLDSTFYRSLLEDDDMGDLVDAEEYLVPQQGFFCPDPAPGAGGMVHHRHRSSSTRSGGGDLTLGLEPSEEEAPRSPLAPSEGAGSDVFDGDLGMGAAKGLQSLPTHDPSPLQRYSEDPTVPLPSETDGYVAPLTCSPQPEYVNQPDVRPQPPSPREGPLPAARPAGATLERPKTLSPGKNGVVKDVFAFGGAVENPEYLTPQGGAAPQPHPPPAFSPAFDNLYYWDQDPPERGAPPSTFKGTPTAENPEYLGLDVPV
Sequence of Epidermal growth factor receptor (P00533 whole entry): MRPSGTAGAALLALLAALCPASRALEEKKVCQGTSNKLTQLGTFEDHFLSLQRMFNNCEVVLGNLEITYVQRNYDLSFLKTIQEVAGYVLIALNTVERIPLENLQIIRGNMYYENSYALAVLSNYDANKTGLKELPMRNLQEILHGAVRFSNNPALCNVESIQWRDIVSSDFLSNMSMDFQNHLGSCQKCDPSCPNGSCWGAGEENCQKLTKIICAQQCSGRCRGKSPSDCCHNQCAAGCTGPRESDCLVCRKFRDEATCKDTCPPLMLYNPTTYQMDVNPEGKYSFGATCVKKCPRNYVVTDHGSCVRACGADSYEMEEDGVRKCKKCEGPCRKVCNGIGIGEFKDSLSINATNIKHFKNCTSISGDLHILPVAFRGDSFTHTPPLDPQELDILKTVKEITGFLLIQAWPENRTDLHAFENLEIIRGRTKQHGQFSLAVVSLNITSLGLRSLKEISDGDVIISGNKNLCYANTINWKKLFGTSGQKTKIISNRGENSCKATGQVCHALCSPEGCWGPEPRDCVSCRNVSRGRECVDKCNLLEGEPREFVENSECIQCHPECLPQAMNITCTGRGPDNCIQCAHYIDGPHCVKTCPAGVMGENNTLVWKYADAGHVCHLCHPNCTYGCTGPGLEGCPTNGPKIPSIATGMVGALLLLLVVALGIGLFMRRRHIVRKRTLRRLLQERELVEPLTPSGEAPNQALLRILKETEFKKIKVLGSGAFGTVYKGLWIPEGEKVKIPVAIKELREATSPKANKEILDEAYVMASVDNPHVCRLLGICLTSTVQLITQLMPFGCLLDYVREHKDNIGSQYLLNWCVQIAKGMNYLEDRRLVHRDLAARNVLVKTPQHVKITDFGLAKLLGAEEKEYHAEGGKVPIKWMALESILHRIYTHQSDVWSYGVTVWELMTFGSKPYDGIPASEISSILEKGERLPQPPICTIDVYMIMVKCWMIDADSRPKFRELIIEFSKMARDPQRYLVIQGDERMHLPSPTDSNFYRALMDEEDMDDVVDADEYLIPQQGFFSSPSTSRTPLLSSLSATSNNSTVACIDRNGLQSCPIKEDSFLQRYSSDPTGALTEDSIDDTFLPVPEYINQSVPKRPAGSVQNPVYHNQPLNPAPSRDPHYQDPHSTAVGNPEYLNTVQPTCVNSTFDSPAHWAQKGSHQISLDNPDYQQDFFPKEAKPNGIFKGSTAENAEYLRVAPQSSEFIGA
Sequence of Insulin receptor (P06213 28-758 limits assumed): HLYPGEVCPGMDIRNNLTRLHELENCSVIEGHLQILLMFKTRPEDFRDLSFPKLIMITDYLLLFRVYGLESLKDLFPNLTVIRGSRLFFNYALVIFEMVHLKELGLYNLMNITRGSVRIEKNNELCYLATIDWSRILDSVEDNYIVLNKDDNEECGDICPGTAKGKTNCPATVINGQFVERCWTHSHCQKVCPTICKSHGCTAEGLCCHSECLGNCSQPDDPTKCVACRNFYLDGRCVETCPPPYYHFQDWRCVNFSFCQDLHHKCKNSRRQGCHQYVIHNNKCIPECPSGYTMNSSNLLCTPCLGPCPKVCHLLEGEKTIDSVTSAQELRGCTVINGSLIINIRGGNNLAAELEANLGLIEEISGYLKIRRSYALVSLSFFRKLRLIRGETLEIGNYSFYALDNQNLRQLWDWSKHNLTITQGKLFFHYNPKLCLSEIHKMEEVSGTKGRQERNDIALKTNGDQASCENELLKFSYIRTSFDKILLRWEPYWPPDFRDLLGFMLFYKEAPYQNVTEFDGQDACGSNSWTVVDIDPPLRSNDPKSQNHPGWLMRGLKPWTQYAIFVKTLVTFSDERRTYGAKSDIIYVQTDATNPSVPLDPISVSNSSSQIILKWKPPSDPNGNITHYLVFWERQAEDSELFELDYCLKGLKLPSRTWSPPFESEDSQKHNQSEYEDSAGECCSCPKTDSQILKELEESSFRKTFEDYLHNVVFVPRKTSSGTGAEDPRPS
Sequence of Insulin receptor (P06213 763-1382 limits assumed): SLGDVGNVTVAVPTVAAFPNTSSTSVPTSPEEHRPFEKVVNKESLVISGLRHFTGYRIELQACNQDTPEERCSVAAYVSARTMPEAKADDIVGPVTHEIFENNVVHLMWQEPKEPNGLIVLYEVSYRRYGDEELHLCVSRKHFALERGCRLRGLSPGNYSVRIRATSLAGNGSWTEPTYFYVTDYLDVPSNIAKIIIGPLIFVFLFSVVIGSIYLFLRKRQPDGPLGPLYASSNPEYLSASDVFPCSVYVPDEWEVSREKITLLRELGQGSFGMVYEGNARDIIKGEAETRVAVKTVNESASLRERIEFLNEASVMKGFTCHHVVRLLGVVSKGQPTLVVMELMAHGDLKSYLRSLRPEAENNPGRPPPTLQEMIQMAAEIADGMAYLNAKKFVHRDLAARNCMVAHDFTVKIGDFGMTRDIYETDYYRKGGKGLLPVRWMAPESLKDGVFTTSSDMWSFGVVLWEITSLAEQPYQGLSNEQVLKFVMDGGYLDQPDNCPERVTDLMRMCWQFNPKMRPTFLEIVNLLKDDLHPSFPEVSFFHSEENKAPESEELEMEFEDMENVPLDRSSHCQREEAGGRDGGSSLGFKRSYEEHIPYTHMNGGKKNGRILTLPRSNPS
Sequence of Platelet-derived growth factor receptor beta (P09619 whole entry): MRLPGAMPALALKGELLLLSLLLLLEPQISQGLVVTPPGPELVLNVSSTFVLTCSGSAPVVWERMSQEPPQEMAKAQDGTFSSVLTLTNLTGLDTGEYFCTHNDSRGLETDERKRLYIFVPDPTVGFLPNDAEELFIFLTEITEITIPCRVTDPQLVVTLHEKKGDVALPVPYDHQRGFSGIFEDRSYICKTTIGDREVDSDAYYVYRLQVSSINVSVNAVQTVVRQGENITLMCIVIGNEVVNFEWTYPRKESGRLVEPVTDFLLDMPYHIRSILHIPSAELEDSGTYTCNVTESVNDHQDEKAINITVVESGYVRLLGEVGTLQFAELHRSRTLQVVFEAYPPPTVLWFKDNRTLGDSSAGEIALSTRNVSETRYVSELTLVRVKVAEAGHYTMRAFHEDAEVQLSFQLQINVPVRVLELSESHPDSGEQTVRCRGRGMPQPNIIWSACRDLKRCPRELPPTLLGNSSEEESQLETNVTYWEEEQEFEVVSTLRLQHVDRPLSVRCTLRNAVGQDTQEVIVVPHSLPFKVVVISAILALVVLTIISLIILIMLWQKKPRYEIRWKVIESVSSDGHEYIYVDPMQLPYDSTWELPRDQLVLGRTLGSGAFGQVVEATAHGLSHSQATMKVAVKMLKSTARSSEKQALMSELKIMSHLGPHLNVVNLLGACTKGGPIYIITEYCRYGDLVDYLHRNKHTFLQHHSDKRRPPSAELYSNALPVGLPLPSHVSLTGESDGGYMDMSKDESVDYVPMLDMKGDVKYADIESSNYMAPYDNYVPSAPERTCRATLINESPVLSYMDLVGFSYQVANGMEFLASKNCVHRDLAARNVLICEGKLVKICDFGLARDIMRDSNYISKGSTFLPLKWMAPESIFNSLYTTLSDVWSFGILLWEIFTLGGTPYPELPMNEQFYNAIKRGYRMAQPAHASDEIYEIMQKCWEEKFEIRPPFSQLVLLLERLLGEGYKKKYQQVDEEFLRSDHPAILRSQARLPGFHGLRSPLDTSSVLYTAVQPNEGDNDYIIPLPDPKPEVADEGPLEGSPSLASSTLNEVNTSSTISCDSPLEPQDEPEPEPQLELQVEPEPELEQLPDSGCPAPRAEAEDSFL

SMILES | pIC50 [1] | pIC50 [2] | pIC50 (BT-474) | pIC50 (NCI-N87 [3]) | other results
Cc1ncnc(Nc2ccc(OCc3cccc(F)c3)c(Cl)c2)c1C#Cc1ncc(CN2CCCC2)s1 | 6.96 | 7.13 |  |  | 
Cc1ncnc(Nc2ccc(OCc3cccc(F)c3)c(Cl)c2)c1C#Cc1ccc(CNCCS(C)(=O)=O)cc1 | 6.66 | 7.66 |  |  | 
Cc1ncnc(Nc2ccc(OCc3cccc(F)c3)c(Cl)c2)c1C#Cc1ccc(CNC(C)C)cc1 | 7.74 | 8.52 | 6.77 | 6.62 | 
Cc1ncnc(Nc2ccc(OCc3cccc(F)c3)c(Cl)c2)c1C#Cc1cccc(CN(C)C)c1 | 7.14 | 7.26 |  |  | 
Cc1ncnc(Nc2ccc(OCc3cccc(F)c3)c(Cl)c2)c1C#Cc1ccc(CN2CCCC2)cc1 | 7.39 | 8.05 |  |  | 
Cc1ncnc(Nc2ccc(OCc3cccc(F)c3)c(Cl)c2)c1/C=C/c1ccc(CNC(C)C)cc1 | 7.52 | 7.62 |  |  | 
CS(=O)(=O)CCNCc1ccc(-c2ccc3ncnc(Nc4ccc(OCc5cccc(F)c5)c(Cl)c4)c3c2)o1 |  |  |  |  | growth inhibition (GI) (NCI-N87 [4]): Active
Cc1ncnc(Nc2ccc(OCc3cccc(F)c3)c(Cl)c2)c1C#Cc1ccc(CN(C)C)cc1 | 7.39 | 8.15 |  |  | 
Cc1ncnc(Nc2ccc(OCc3cccc(F)c3)c(Cl)c2)c1C#Cc1ccc(CN2CCCC2)o1 | 6.85 | 7.10 | 6.09 | 5.87 | 
Cc1ncnc(Nc2ccc(OCc3cccc(F)c3)c(Cl)c2)c1C#Cc1ccc(CN2CCCC2)c(F)c1 | 7.21 | 6.72 | 7.30 | 7.22 | pIC50 [5]: < 4.00; AUC [6]: 361 ng·h/mL; growth inhibition (GI) (NCI-N87 [7]): Active; T/C (NCI-N87 [8]): 0.54; pIC50 (Aurora kinase A): < 4.00; pIC50 [9]: < 4.00; T/C (NCI-N87 [10]): 0.56; pIC50 [11]: < 4.00; growth inhibition (GI) (NCI-N87 [4]): Active; pIC50 (Insulin receptor): < 4.00; clearance [12]: 18 mL/min/kg; remaining at 0.5 h [13]: 24%; solubility [14]: > 50 µM; remaining at 0.5 h [15]: 63%; bioavailability [16]: 35%
CS(=O)(=O)CCNCc1ccc(-c2ccc3ncnc(Nc4ccc(OCc5cccc(F)c5)c(Cl)c4)c3c2)o1.Cc1ccc(S(=O)(=O)O)cc1.Cc1ccc(S(=O)(=O)O)cc1.O [LAPATINIB DITOSYLATE] |  |  |  |  | T/C (NCI-N87 [8]): 0.37; T/C (NCI-N87 [10]): 0.57
Cc1ncnc(Nc2ccc(OCc3cccc(F)c3)c(Cl)c2)c1C#Cc1ccc(CN2CCCC2)s1 | 6.74 | 7.52 | 6.39 | 6.16 | 
Cc1ncnc(Nc2ccc(OCc3cccc(F)c3)c(Cl)c2)c1C#Cc1ccccc1 | 6.12 | 6.19 |  |  | 
CS(=O)(=O)CCNCc1ccc(-c2ccc3ncnc(Nc4ccc(OCc5cccc(F)c5)c(Cl)c4)c3c2)o1 [LAPATINIB] |  |  | 7.00 | 7.05 | 
Cc1ncnc(Nc2ccc(OCc3cccc(F)c3)c(Cl)c2)c1C#CCOc1ccc(CNC(C)C)cc1 | 6.89 | 7.07 |  |  | 
Cc1ncnc(Nc2ccc(OCc3cccc(F)c3)c(Cl)c2)c1/C=C/c1ccc(CNC2CC2)cc1 | 7.07 | 7.01 |  |  | 
Cc1ncnc(Nc2ccc(OCc3cccc(F)c3)c(Cl)c2)c1/C=C/c1ccc(CNCCS(C)(=O)=O)cc1 | 6.92 |  | 6.19 | 6.11 | 
